Source: ChEMBL document CHEMBL3627690, “Scaffold-Hopping and Structure-Based Discovery of Potent, Selective, And Brain Penetrant N-(1H-Pyrazol-3-yl)pyridin-2-amine Inhibitors of Dual Leucine Zipper Kinase (DLK, MAP3K12)” (J Med Chem, 2015)

Legend:
[1] = biological target: T1, Mitogen-activated protein kinase kinase kinase 12 (Homo sapiens, UniProt Q12852); assay: Inhibition of N-terminally GST- tagged human DLK catalytic domain (1 to 520 amino acids) using N-terminally HIS-tagged MKK4 K131M as substrate incubated for 60 mins by TR-FRET assay
T1 sequence (Q12852 whole entry): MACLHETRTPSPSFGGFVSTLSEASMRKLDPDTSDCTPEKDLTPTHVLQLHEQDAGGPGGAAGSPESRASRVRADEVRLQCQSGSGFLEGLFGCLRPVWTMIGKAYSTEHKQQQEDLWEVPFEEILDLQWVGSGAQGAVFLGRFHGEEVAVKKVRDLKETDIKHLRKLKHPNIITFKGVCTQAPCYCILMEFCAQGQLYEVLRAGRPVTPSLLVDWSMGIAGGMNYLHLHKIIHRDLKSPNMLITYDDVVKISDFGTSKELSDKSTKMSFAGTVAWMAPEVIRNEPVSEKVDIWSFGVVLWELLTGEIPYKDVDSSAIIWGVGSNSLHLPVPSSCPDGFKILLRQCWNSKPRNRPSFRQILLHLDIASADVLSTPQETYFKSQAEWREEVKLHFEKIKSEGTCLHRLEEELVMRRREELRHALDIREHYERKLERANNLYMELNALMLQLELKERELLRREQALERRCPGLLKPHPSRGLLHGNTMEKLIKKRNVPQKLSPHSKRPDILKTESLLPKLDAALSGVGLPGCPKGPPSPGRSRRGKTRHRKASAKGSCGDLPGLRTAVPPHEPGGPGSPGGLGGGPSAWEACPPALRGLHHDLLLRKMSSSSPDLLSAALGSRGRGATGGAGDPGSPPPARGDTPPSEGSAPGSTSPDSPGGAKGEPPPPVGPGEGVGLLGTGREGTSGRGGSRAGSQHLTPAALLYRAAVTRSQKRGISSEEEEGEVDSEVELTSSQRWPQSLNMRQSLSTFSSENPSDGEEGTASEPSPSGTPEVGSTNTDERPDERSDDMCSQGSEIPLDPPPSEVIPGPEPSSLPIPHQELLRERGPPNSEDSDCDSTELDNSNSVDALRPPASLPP

[2] = biological target: T1, Mitogen-activated protein kinase kinase kinase 12; assay: Inhibition of Dox inducible human DLK transfected in HEK293 cells assessed as reduction in JNK phosphorylation incubated for 5.5 hrs measured by Hoechst 33342 staining based imaging analysis; type: cell-based
human MDR1 [3] = assay: Efflux ratio of permeability across basolateral to apical over apical to basolateral side in MDCK cells transfected with human MDR1 at 5 uM by LC-MS/MS analysis; details: dog
human MDR1 [4] = assay: Permeability across apical to basolateral side in MDCK cells transfected with human MDR1 at 5 uM by LC-MS/MS analysis; details: dog

Row | Compound | Ki [1] | IC50 [2] | efflux ratio at 5 µM (human MDR1 [3]) | Papp A→B at 5 µM (human MDR1 [4])
1 | CC(C)n1nc(Nc2cc(C#N)ccn2)cc1C1CCNCC1 | 160 nM |  |  | 
2 | N#Cc1ccnc(Nc2cc(C3CCOC3)n(C3CCCC3)n2)c1 (racemic) | 54 nM | 698 nM | 1 | 2.7 ×10⁻⁶ cm/s
3 | N#Cc1ccnc(Nc2nc(C3CC3)c(C3CCN(C4COC4)CC3)s2)c1 | 569 nM | 8600 nM |  | 
4 | CC(C)n1nc(Nc2cc(C(F)(F)F)ccn2)cc1C1CCNCC1 | 145 nM |  | 36 | 0.5 ×10⁻⁶ cm/s
5 | CC(C)n1nc(Nc2ccc(C(F)(F)F)cn2)cc1C1CCNCC1 | > 1600 nM |  |  | 
6 | N#Cc1ccnc(Nc2cc(C3CN(C4COC4)C3)n(C3CCCC3)n2)c1 | 48 nM | 459 nM | 3.3 | 4.9 ×10⁻⁶ cm/s
7 | N#Cc1ccnc(Nc2cn(C3CCN(C4COC4)CC3)c(C3CCCC3)n2)c1 | > 1600 nM |  |  | 
8 | CC(C)n1nc(Nc2ccc(C#N)cn2)cc1C1CCNCC1 | > 1600 nM |  |  | 
9 | N#Cc1ccnc(Nc2cc(C3CCN(C4COC4)C3)n(C3CCCC3)n2)c1 (racemic) | 25 nM | 632 nM | 3.7 | 5.6 ×10⁻⁶ cm/s

Other lines, results leading:

Row | Ki [1] | IC50 [2] | efflux ratio at 5 µM (human MDR1 [3]) | Papp A→B at 5 µM (human MDR1 [4]) | Compound
10 | 133 nM | 1400 nM |  | 1.8 ×10⁻⁶ cm/s | N#Cc1ccnc(Nc2cc(C3CCN(C4COC4)CC3)n(CC3CCC3)n2)c1
11 | 378 nM |  | 7.6 | 1.9 ×10⁻⁶ cm/s | N#Cc1ccnc(Nc2cc(C3CCN(C4COC4)CC3)n(C3CCOC3)n2)c1 (racemic)
12 | 593 nM |  | 15 | 1.7 ×10⁻⁶ cm/s | N#Cc1ccnc(Nc2cc(C3CCN(C4COC4)CC3)n(C3CCOCC3)n2)c1
13 | 48 nM | 721 nM | 5.8 | 4.2 ×10⁻⁶ cm/s | N#Cc1ccnc(Nc2cc(C3CCN(C4COC4)CC3)n(C3CCC(F)(F)C3)n2)c1 (racemic)
